Experimental data from PubChem BioAssay AID602211 (Sanford-Burnham Center for Chemical Genomics, 2012).
Calls of active or inactive are those of the source.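 The calls were made as follows: active = mean IC50 at or below 10 µM; inactive = the rest.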

The molecules below were run on H9c2 cardiomyocytes, H2O2 protection, ATPLite viability, 2 h (assay: protection of H9c2 cardiomyocytes from H2O2 death, dose response, cell-based, ATPLite luminescence, set 2 (AID 602211);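 also: potency is for protection so actives keep ATP signal up against peroxide killing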).

**Q.** Which IC50 does the source give for `CC1(C)Oc2ccc3ccc(=O)oc3c2/C(=C/Nc2ccccn2)C1=O` here?
**A.** > 79 µM (inactive)

**Q.** `CCOc1ccc(S(=O)(=O)N(C)CCO)cc1-c1nc2c(C(C)(C)C)nn(C)c2c(=O)[nH]1` was tested. Which IC50 did it give?
**A.** 5.22 µM

**Q.** Which IC50 does the source give for `O=C(C(=O)N(Cc1ccccc1)Cc1ccccc1)c1c(-c2ccccc2)[nH]c2ccccc12` here?
**A.** 0.33 µM

**Q.** With `COc1ccc(COc2cc(-c3cccc(OC)c3)nc3ccc(NC(=O)c4cccnc4)cc23)cc1` as the molecule, how does the IC50 read?
**A.** 2.36 µM

**Q.** `COc1ccc(COc2cc(-c3cccc(OC)c3)nc3ccc(NC(=O)c4ccc(OC)cc4)cc23)cc1` was tested. Which IC50 did it give?
**A.** 2.42 µM

**Q.** Which IC50 does the source give for `COc1cc(-c2cc(C(=O)Nc3cccc(C(C)=O)c3)c3ccccc3n2)cc(OC)c1OC` here?
**A.** 3.59 µM

**Q.** Which IC50 does the source give for `NC(=O)c1nsc(C(=O)N(c2ccccc2F)C(C(=O)NCc2ccc(F)cc2)c2ccc(O)cc2)c1N` (stereo unspecified) here?
**A.** 0.94 µM

**Q.** Which IC50 does the source give for `COc1ccccc1NC(=O)COc1ccc(C(=O)OCC(=O)NC(C)(C)C)cc1OC` here?
**A.** 13.7 µM (inactive)

**Q.** With `CC(=O)c1cccc(-c2cnc3c(NC=O)cc(-c4ccccc4F)cn23)c1` as the molecule, how does the IC50 read?
**A.** 7.66 µM

**Q.** How did the IC50 turn out when `CCOC(=O)c1ccc(NC(=O)c2nc[nH]c2C(=O)NCCCCCNC(=O)OC(C)(C)C)cc1` was run?
**A.** 4.43 µM

**Q.** `N#C/C(=C\c1cn(-c2ccccc2)nc1-c1cccnc1)c1nnc2n1CCCCC2` was tested. Which IC50 did it give?
**A.** 13.7 µM (inactive)

**Q.** With `CCOC(=O)c1nn(-c2cccc(OC)c2)c2nc(Nc3ccccc3)cc(=O)n12` as the molecule, how does the IC50 read?
**A.** > 79 µM (inactive)

**Q.** For `CCCCn1nc(NC(=O)c2cccs2)c2cc3cc(OC)ccc3nc21`, which IC50 is on record?
**A.** 3.61 µM

**Q.** For `COC(=O)/C(=C(O)\C=C\c1ccccc1[N+](=O)[O-])c1nc2ccccc2[nH]1`, which IC50 is on record?
**A.** 7.96 µM

**Q.** `O=C(/C=C\c1cn(-c2ccccc2)nc1-c1ccc2c(c1)OCCO2)N1CCOCC1` was tested. Which IC50 did it give?
**A.** 7.49 µM

**Q.** Which IC50 does the source give for `COc1ccc(C(C(=O)NC2CCCC2)N(C(=O)c2snc(C(N)=O)c2N)c2cccc(O)c2)cc1` (stereo unspecified) here?
**A.** 12.7 µM (inactive)

**Q.** `O=C(N/N=C/c1ccncc1)c1ccc(COc2cccc3cccnc23)cc1` was tested. Which IC50 did it give?
**A.** 25.3 µM (inactive)

**Q.** For `CC(=O)Nc1cccc(-c2cc(NC=O)c3ncc(-c4ccc(C(C)=O)cc4)n3c2)c1`, which IC50 is on record?
**A.** 6.5 µM

**Q.** For `CCN(CC)C(=O)c1ccc(-c2nnc(Nc3ccc(O)cc3)c3ccccc23)cc1`, which IC50 is on record?
**A.** 17.6 µM (inactive)

**Q.** For `CCOC(=O)C1CCN(c2cc3c(cc2NC(=O)c2ccccc2Cl)n(C)c(=O)n3C)CC1`, which IC50 is on record?
**A.** 5.6 µM

**Q.** Which IC50 does the source give for `O=CNc1cc(-c2ccc(C(=O)NC3CC3)cc2)cn2c(-c3ccc(F)c(Cl)c3)cnc12` here?
**A.** 5.46 µM

**Q.** Which IC50 does the source give for `CCOC(=O)C1CCN(C(c2cc3c(C)ccc(C)c3[nH]c2=O)c2nnnn2C2CCCCC2)CC1` (stereo unspecified) here?
**A.** > 79 µM (inactive)

**Q.** `CC(C)CCN(C(=O)CNC(=O)c1ccco1)C(C(=O)NC1CCCCC1)c1ccco1` (stereo unspecified) was tested. Which IC50 did it give?
**A.** 13.4 µM (inactive)

**Q.** `C/C(=N\Nc1nnc2c3ccccc3n(C)c2n1)c1ccc(C)o1` was tested. Which IC50 did it give?
**A.** 10.4 µM (inactive)

**Q.** For `CCOc1cc(/C=C/c2ccc3cccc([N+](=O)[O-])c3n2)ccc1OCC(=O)N(C)C`, which IC50 is on record?
**A.** 9.02 µM

**Q.** How did the IC50 turn out when `COc1ccc(CNn2c(-c3cccs3)nc3ccccc3c2=O)cc1OC` was run?
**A.** 7.18 µM

**Q.** How did the IC50 turn out when `COc1cc(/C=N/NC(=O)c2cccnc2)ccc1OS(=O)(=O)c1cc(C)ccc1C` was run?
**A.** > 79 µM (inactive)

**Q.** How did the IC50 turn out when `Cc1ccc(C)c(NC(=O)C(Sc2nc3ccccc3c(=O)n2CC(C)C)c2ccccc2)c1` (stereo unspecified) was run?
**A.** 0.35 µM

**Q.** Which IC50 does the source give for `O=C(COC(=O)c1c2c(nc3ccccc13)/C(=C/c1cccc([N+](=O)[O-])c1)CCC2)NC1CCS(=O)(=O)C1` (stereo unspecified) here?
**A.** 4.47 µM

**Q.** How did the IC50 turn out when `CCOC(=O)C1CCCN(C(=O)CCC(=O)Nc2ccc3nc(N4CCOCC4)cc(C)c3c2)C1` (stereo unspecified) was run?
**A.** > 79 µM (inactive)

**Q.** For `COc1cc(/C=C(\C#N)C(=O)Nc2ccccc2)ccc1OCCN1CCOCC1`, which IC50 is on record?
**A.** 11.7 µM (inactive)

**Q.** Which IC50 does the source give for `COc1cccc(Nc2nc3ccccc3n3nnnc23)c1` here?
**A.** > 79 µM (inactive)

**Q.** For `O=C(C[C@@H]1C/C=C/CC[C@@H](Cc2ccc(F)cc2)C(=O)O[C@@H](c2ccccc2)CNC1=O)NCCO`, which IC50 is on record?
**A.** 10.9 µM (inactive)

**Q.** For `CC(=O)c1ccc(N2CCN(C(=O)C3CCCN(c4ncnc5c4nc4n5CCCCC4)C3)CC2)cc1` (stereo unspecified), which IC50 is on record?
**A.** 2.68 µM

**Q.** Which IC50 does the source give for `COC(=O)C1=C(C)N(CCc2ccc(OC)cc2)C(=O)C1` here?
**A.** 21.9 µM (inactive)

**Q.** How did the IC50 turn out when `C[C@@H]1CN([C@@H](C)CO)C(=O)c2cc(NC(=O)Nc3ccccc3)ccc2O[C@H]1CN(C)C(=O)Nc1cccc2ccccc12` was run?
**A.** 8.2 µM

**Q.** `COc1cccc(C(=O)CSc2nnc(-c3cc(OC)c(OC)c(OC)c3)o2)c1` was tested. Which IC50 did it give?
**A.** > 79 µM (inactive)

**Q.** How did the IC50 turn out when `COc1cc2[nH]c(=O)n3nc(-c4ccccc4)nc3c2cc1OC` was run?
**A.** 11 µM (inactive)

**Q.** For `N#Cc1cnn2cc(-c3ncc(C(F)(F)F)cc3Cl)cnc12`, which IC50 is on record?
**A.** 29.9 µM (inactive)

**Q.** With `O=C(N/N=C\c1ccccn1)c1cccc(C(=O)N/N=C\c2ccccn2)n1` as the molecule, how does the IC50 read?
**A.** 2.07 µM

**Q.** For `Cn1c(=O)c2[nH]c(NN=Cc3ccc(Br)cc3)nc2n(C)c1=O`, which IC50 is on record?
**A.** 5.14 µM

**Q.** `O=C(CSc1nnc(-c2ccccc2)n1Cc1ccccc1)NNC(=O)c1ccccc1O` was tested. Which IC50 did it give?
**A.** 4.2 µM

**Q.** For `CCCc1cc(N2CCN(C(=O)c3ccco3)CC2)n2c(nc3ccccc32)c1C#N`, which IC50 is on record?
**A.** > 79 µM (inactive)

**Q.** `O=C(N/N=C/c1ccccn1)c1ccc(NC(=O)c2cccc([N+](=O)[O-])c2)cc1` was tested. Which IC50 did it give?
**A.** 7.34 µM

**Q.** `COc1cc(-c2cc(NC(C)=O)c3ncc(-c4cc(OC)c(OC)c(OC)c4)n3c2)cc(OC)c1OC` was tested. Which IC50 did it give?
**A.** 3.85 µM

**Q.** With `COc1ccc2cc3cc(C(=O)NCCc4ccc(OC)c(OC)c4)oc3nc2c1` as the molecule, how does the IC50 read?
**A.** 4.28 µM

**Q.** For `COc1ccc(NC(=O)c2cc3c(=O)n(C)c4ccccc4c3n2C)cc1OC`, which IC50 is on record?
**A.** 3.23 µM

**Q.** With `COc1cc2c(cc1OC)CN(c1nc(-c3cccnc3)nc3ccccc13)CC2` as the molecule, how does the IC50 read?
**A.** 2.93 µM

**Q.** For `O=C(Nc1nc(-c2cc(F)ccc2F)cs1)C1=NN(c2ccccc2)C(=O)CC1`, which IC50 is on record?
**A.** 6.26 µM

**Q.** For `CCC(c1nnnn1Cc1ccccc1)N1CCC(n2c(=O)[nH]c3ccccc32)CC1` (stereo unspecified), which IC50 is on record?
**A.** > 79 µM (inactive)

**Q.** With `Cc1nc(SCC(=O)N2CCN(c3ccccc3)CC2)c2oc3ccccc3c2n1` as the molecule, how does the IC50 read?
**A.** 3.43 µM

**Q.** `COc1cc(C(=O)Nc2cccc(-c3nnc(-c4ccco4)o3)c2)ccc1OC(C)=O` was tested. Which IC50 did it give?
**A.** > 79 µM (inactive)

**Q.** For `COc1cccc(CN2CCN(C(=O)c3cc(-c4cccnc4)nc4ccc(C)cc34)CC2)c1`, which IC50 is on record?
**A.** 22.9 µM (inactive)

**Q.** `COc1ccc(-c2cc(C(=O)N(C)Cc3ccc(OC)c(OC)c3OC)c3ccccc3n2)cc1OC` was tested. Which IC50 did it give?
**A.** 4.04 µM

**Q.** How did the IC50 turn out when `CC(=O)c1ccc(-c2cnc3c(NC=O)cc(-c4cccc(C(=O)N(C)C)c4)cn23)cc1` was run?
**A.** 18.9 µM (inactive)

**Q.** How did the IC50 turn out when `CS(=O)(=O)Nc1cccc(NC(=O)c2cccc3c(-c4cccc(C(N)=O)c4)coc23)c1` was run?
**A.** 3.61 µM

**Q.** `O=C(NCCc1ccccc1Cl)c1ccc2nc3ccccc3c(=O)n2c1` was tested. Which IC50 did it give?
**A.** 7.16 µM

**Q.** For `Cc1c(O)ccc2c(-c3ccccc3)cc(=O)oc12`, which IC50 is on record?
**A.** > 79 µM (inactive)

**Q.** Which IC50 does the source give for `CS(=O)(=O)c1ccc(-c2cnc3c(NC=O)cc(-c4ccsc4)cn23)cc1` here?
**A.** 12.5 µM (inactive)

**Q.** For `Cc1nn2c(-c3cccc(NC(=O)c4ccco4)c3)nnc2c2ccccc12`, which IC50 is on record?
**A.** 1.66 µM

**Q.** With `CC(=O)Nc1cccc(-c2cc(NC(C)=O)c3ncc(-c4ccccc4)n3c2)c1` as the molecule, how does the IC50 read?
**A.** 13.7 µM (inactive)

**Q.** Which IC50 does the source give for `NC(=O)c1nsc(C(=O)N(Cc2ccco2)C(C(=O)NCc2ccccc2)c2ccc(O)cc2)c1N` (stereo unspecified) here?
**A.** 9.87 µM

**Q.** With `CCc1nc(N2CCN(C(=O)c3ccco3)CC2)c2oc3ccccc3c2n1` as the molecule, how does the IC50 read?
**A.** > 79 µM (inactive)

**Q.** For `C[C@H](CO)N1C[C@H](C)[C@@H](CN(C)C(=O)Nc2ccc3c(c2)OCO3)Oc2c(NC(=O)Nc3ccc(C(F)(F)F)cc3)cccc2C1=O`, which IC50 is on record?
**A.** 40.3 µM (inactive)

**Q.** How did the IC50 turn out when `COc1ccc2o/c(=N/NC(=O)c3cccs3)c(C(N)=O)cc2c1` was run?
**A.** 2.29 µM

**Q.** With `O=C(N/N=C/c1ccc2c(c1)OCO2)c1ccc(NC(=O)c2ccccc2Cl)cc1` as the molecule, how does the IC50 read?
**A.** 8.05 µM
